The target of data set [1] is T1, G-protein coupled receptor 39 (Homo sapiens, UniProt O43194).
T1 sequence (O43194 whole entry): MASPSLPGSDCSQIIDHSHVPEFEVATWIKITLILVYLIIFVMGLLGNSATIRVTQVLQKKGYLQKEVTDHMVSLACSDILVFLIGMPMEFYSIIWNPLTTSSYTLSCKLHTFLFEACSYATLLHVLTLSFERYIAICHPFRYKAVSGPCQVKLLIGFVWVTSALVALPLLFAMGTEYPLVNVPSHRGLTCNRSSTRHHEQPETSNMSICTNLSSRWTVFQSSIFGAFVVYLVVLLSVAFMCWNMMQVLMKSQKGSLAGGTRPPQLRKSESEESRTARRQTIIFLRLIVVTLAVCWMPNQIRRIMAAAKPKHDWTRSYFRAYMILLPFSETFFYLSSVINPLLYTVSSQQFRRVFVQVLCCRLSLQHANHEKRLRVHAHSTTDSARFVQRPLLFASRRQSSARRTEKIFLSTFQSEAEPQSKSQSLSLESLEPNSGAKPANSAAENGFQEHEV
Briefly: Agonist activity at human GPR39 receptor expressed in CHO cells assessed as increase in ca2+ flux. Type of data set: functional, cell-based. Background: Calcium flux is commonly read through the fluorescence of an indicator in the cells.

Data set [2] deals with T1, G-protein coupled receptor 39. The experiment in a line: Positive allosteric activity at human GPR39 receptor expressed in CHO cells assessed as increase in zn2+ induced ca2+ flux. Type of data set: cell-based.
Data set [3] relates to SH-SY5Y. The experiment in a line: Cytotoxicity in human SH-SY5Y cells assessed as decrease in cell viability at 10 uM. Type of data set: toxicity, cell-based.
The target in data set [4] is T2, G-protein coupled receptor 39 (Homo sapiens) (UniProt O43194).
T2 sequence (whole entry): T1 sequence (O43194 whole entry)
Briefly: Agonist activity at human GPR39 receptor expressed in CHO cells assessed as increase in ca2+ flux relative to Zn2+. Type of data set: functional, cell-based.

Data set [5] has as its target T2, G-protein coupled receptor 39 (Homo sapiens). Briefly: Positive allosteric activity at human GPR39 receptor expressed in CHO cells assessed as increase in zn2+ induced ca2+ flux relative to Zn2+. Type of data set: cell-based. To be noted: filed as positive allosteric modulator.
Data set [6] has as its system SH-SY5Y. The experiment in a line: Neuroprotective activity against 6-OHDA-induced PD model of human SH-SY5Y cells assessed as increase in cell viability. Type of data set: functional, cell-based.
Setting [7] is: filed as positive allosteric modulator.

Active and inactive are the calls of the source. No cut-off for these calls is given here.

For orientation: EC50 means the concentration needed to bring the measured effect to its halfway point. Broadly, the Emax is the maximal effect, on the per cent scale that the assay sets.

In the case of `Cc1cc(NC(C)c2ccc(F)cc2)n2ncc(-c3ccccn3)c2n1` (single isomer, unassigned; enantiomer 2) [listing 1 of 2 here], the EC50 in data set [1] was 26 nM; in data set [2] (cho) it was over 27100 nM. The Activity entry in the data set on SH-SY5Y [3] is “Toxic”.

For the molecule `Cc1cc(N2CCCC2c2cccnc2)n2ncc(-c3ccccn3)c2n1` (single isomer, unassigned; enantiomer 1) [listing 1 of 2 here], the Emax in data set [4] (setting [7]) was 58%.

Take `O=C(Cc1nn(CC2CCC2)c(=O)c2ccccc12)NCc1ccccn1`: the EC50 in data set [1] was over 50000 nM; in data set [2] it was 4040 nM. For the same molecule, the Emax in data set [5] came to 49%.

In the case of `Cc1cc(N2CCC(c3ccccc3)C2)n2ncc(-c3ccccn3)c2n1` (single isomer, unassigned; enantiomer 1) [listing 1 of 2 here], the EC50 in data set [1] is over 10000 nM; in data set [2], 142 nM.

Take `CNC(=O)C(Nc1cc(C)nc2c(-c3ccccn3)cnn12)c1ccc(F)cc1` (racemic): the figures for the EC50 in data set [1] and in data set [2] were 78 nM and over 27100 nM, respectively. The Emax in data set [4] (setting [7]) came to 75%.

Turning to `Cn1cc(-c2ccc3nc(C(N)CCOCc4ccccc4)[nH]c(=O)c3c2)cn1` (stereo not drawn), the EC50 in data set [1] is over 50000 nM; in data set [2], 641 nM. The Emax in data set [5] is 83%.

Consider `Cc1cc(NCc2ccc(F)cc2)n2ncc(-c3ccccn3)c2n1`, for which the EC50 was 15 nM in data set [1] and over 27100 nM in data set [2]. The Emax in data set [4] (setting [7]) was 57%.

As to `Cc1cc(N2CCCC2c2ccccc2)n2ncc(-c3ccccn3)c2n1` (racemic), the EC50 in data set [1] was 17 nM; in data set [2], over 27100 nM. Also, the Emax in data set [4] is 36%.

On to `NC(Cc1cnc[nH]1)c1nc2ccc(-c3ccccc3)cc2c(=O)[nH]1` (stereo not drawn), for which the EC50 was over 50000 nM in data set [1] and 251 nM in data set [2]. Further, in data set [5], the Emax is 102%.

Take `Cc1cc(NC(C)c2ccc(F)cc2)n2ncc(-c3ccccn3)c2n1` (single isomer, unassigned; enantiomer 2) [listing 2 of 2 here]: the maximum response (Emax) in data set [4] (setting [7]) was 68%. Further, the outcome with SH-SY5Y [6] was Active.

With `Cc1cc(N2CCC(c3ccccc3)C2)n2ncc(-c3ccccn3)c2n1` (single isomer, unassigned; enantiomer 2) [listing 1 of 2 here], the EC50 is over 10000 nM in data set [1] (cho) and 273 nM in data set [2].

Turning to `Cc1cc(N2C(=O)CCC2c2ccccc2)n2ncc(-c3ccccn3)c2n1` (racemic), the figures for the EC50 in data set [1] and in data set [2] were over 31600 nM and over 27100 nM, respectively.

For `Cc1cc(N2CCC(c3ccccc3)C2)n2ncc(-c3ccccn3)c2n1` (single isomer, unassigned; enantiomer 2) [listing 2 of 2 here], the Emax in data set [5] worked out at 54%.

Consider `Cc1cc(N2CCC(c3ccccc3)C2)n2ncc(-c3ccccn3)c2n1` (single isomer, unassigned; enantiomer 1) [listing 2 of 2 here], for which, in data set [5], the Emax was found to be 65%.

For the molecule `Cc1cc(NC(C)c2ccc(F)cc2)n2ncc(-c3ccccn3)c2n1` (single isomer, unassigned; enantiomer 1) [listing 1 of 2 here], in data set [4] (setting [7]), the Emax turned out to be 51%.

Consider `CNc1nc(NC2CCCCC2)cc(-c2ccccn2)n1`, for which the concentration for a half-maximal effect (EC50) in data set [1] was 16 nM; in data set [2], over 27100 nM. Further, in data set [4] (setting [7]), the Emax came out at 49%.

Turning to `Cc1cc(N2CCCC2c2cccnc2)n2ncc(-c3ccccn3)c2n1` (single isomer, unassigned; enantiomer 1) [listing 2 of 2 here], the EC50 was 79 nM in data set [1] and over 27100 nM in data set [2].

Consider `Cc1cc(N2CCCC2c2cccnc2)n2ncc(-c3ccccn3)c2n1` (single isomer, unassigned; enantiomer 2) [listing 1 of 2 here], for which the Emax in data set [4] (setting [7]) came to 64%.

For the molecule `Cc1cc(NC(C)c2ccc(F)cc2)n2ncc(-c3ccccn3)c2n1` (single isomer, unassigned; enantiomer 1) [listing 2 of 2 here], the results for the 50% effective concentration (EC50) in data set [1] and in data set [2] were 17 nM and over 27100 nM, respectively.

Take `CNc1cc(-c2ccccn2)nc(NC2CCCCC2)n1`: the EC50 in data set [1] was over 31600 nM; in data set [2], 487 nM. Also, the Emax in data set [5] came out at 88%.

Take `N#Cc1ccc(N2CCN(Cc3cn4cc(Cl)ccc4n3)CC2)nc1`: the EC50 in data set [1] was determined as 6250 nM. Moreover, the Emax in data set [4] (setting [7]) is 48%.

`Cc1cc(NC(C)(C)c2ccc(F)cc2)n2ncc(-c3ccccn3)c2n1`: the EC50 was 63 nM in data set [1] and over 27100 nM in data set [2]. Besides, the Emax in data set [4] worked out at 38%.

For the molecule `CNc1nc(Oc2ccccc2)cc(-c2ccccn2)n1`, the values for the EC50 in data set [1] and in data set [2] were 481 nM and 23 nM, respectively. Moreover, the values for the Emax in data set [4] (setting [7]) and in data set [5] were 58% and 48%, respectively.

As to `CNc1nc(NCc2ccccc2Cl)cc(-c2ccccn2)n1`, the EC50 in data set [1] was 3 nM; in data set [2] it was over 27100 nM. Besides, the Emax in data set [4] (setting [7]) came to 86%.

In the case of `CNc1nc(NCc2ccc(NS(C)(=O)=O)cc2Cl)cc(-c2ccccn2)n1`, the concentration for a half-maximal effect (EC50) in data set [1] was 15 nM; in data set [2] it was over 27100 nM. Moreover, in data set [4] (setting [7]), the Emax turned out to be 84%. The result in the data set with SH-SY5Y [6] was Active. Further, the Activity result with SH-SY5Y [3] is “Toxic”.

With `Cc1cc(N2CCCC2c2cccnc2)n2ncc(-c3ccccn3)c2n1` (single isomer, unassigned; enantiomer 2) [listing 2 of 2 here], the figures for the EC50 in data set [1] and in data set [2] (cho) were 240 nM and over 27100 nM, respectively.

The record behind these values is ChEMBL document CHEMBL5131482, “Synthesis and SAR of novel GPR39 agonists and positive allosteric modulators” (Bioorg Med Chem Lett, 2022).
